Experimental data published in ChEMBL document CHEMBL5120779, “Thiazolidinedione-Based Structure Modification of Celastrol Provides Thiazolidinedione-Conjugated Derivatives as Potent Agents against Non-Small-Cell Lung Cancer Cells through a Mitochondria-Mediated Apoptotic Pathway” (J Nat Prod, 2022).

Legend:
[1] = Cytotoxicity against human MRC5 cells assessed as inhibition of cell growth measured after 96 hrs by MTT assay; format: toxicity, cell-based
[2] = Selectivity index, ratio of IC50 for human MRC5 cells to IC50 for human A549 cells; format: toxicity; conditions: MRC5 cells and A549 cells, read-out: Ratio IC50
[3] = test system: A549; experiment: cells; conditions: Homo sapiens, A549, 96 h
Description: Cytotoxicity against human A549 cells assessed as inhibition of cell growth measured after 96 hrs by MTT assay

[4] = test system: A549; experiment: Potency index, ratio of celastrol IC50 to test compound IC50 for cytotoxicity against human A549 cells by MTT assay; format: functional
[5] = test system: A549; experiment: Induction of apoptosis in human A549 cells assessed as necrotic cells at 0.5 uM incubated for 48 hrs by Annexin V-FITC/propidium iodide staining based flow cytometry (reference value: 3.36%); format: functional
[6] = test system: A549; experiment: Induction of apoptosis in human A549 cells assessed as late apoptotic cells at 0.5 uM incubated for 48 hrs by Annexin V-FITC/propidium iodide staining based flow cytometry (reference value: 0.82%); format: functional
[7] = test system: A549; experiment: Induction of apoptosis in human A549 cells assessed as early apoptotic cells at 0.5 uM incubated for 48 hrs by Annexin V-FITC/propidium iodide staining based flow cytometry (reference value: 0.11%); format: functional
[8] = test system: A549; experiment: Cytotoxicity against human A549 cells assessed as inhibition of cell proliferation at 0.125 to 2 uM by MTT assay; format: functional, cell-based; conditions: dose 0.125-2 µM, time 24-72 hrs, TDE = time-dependent effect
[9] = test system: A549; experiment: Cytotoxicity against human A549 cells assessed as inhibition of cell proliferation measured after 24 to 72 hrs by MTT assay; format: functional, cell-based; conditions: dose 0.125-2 µM, time 24-72 hrs, DDE = dose-dependent effect
[10] = test system: A549; experiment: Induction of apoptosis in human A549 cells assessed as viable cells at 0.5 uM incubated for 48 hrs by Annexin V-FITC/propidium iodide staining based flow cytometry (reference value: 95.7%); format: functional; conditions: read-out: Activity

SMILES	IC50 at 96 h [1]	selectivity ratio [2]	IC50 [3]	other results
CC1=C(O)C(=O)C=C2C1=CC=C1[C@@]2(C)CC[C@@]2(C)[C@@H]3C[C@](C)(C(=O)N4CCN(C(=O)CN5C(=O)S/C(=C\c6ccc(N(C)C)cc6)C5=O)CC4)CC[C@]3(C)CC[C@]12C	4770 nM	5.07	940 nM	
CC1=C(O)C(=O)C=C2C1=CC=C1[C@@]2(C)CC[C@@]2(C)[C@@H]3C[C@](C)(C(=O)N4CCN(C(=O)CN5C(=O)S/C(=C\c6cccs6)C5=O)CC4)CC[C@]3(C)CC[C@]12C	1270 nM	3.53	360 nM	
CC1=C(O)C(=O)C=C2C1=CC=C1[C@@]2(C)CC[C@@]2(C)[C@@H]3C[C@](C)(C(=O)N4CCN(C(=O)CN5C(=O)S/C(=C\C(C)C)C5=O)CC4)CC[C@]3(C)CC[C@]12C	2930 nM	32.6	90 nM	Ratio IC50 [4]: 12.2
COc1cccc(/C=C2\SC(=O)N(CC(=O)N3CCN(C(=O)[C@]4(C)CC[C@]5(C)CC[C@]6(C)C7=CC=C8C(=CC(=O)C(O)=C8C)[C@]7(C)CC[C@@]6(C)[C@@H]5C4)CC3)C2=O)c1	2380 nM	6.61	360 nM	
CCCC/C=C1\SC(=O)N(CC(=O)N2CCN(C(=O)[C@]3(C)CC[C@]4(C)CC[C@]5(C)C6=CC=C7C(=CC(=O)C(O)=C7C)[C@]6(C)CC[C@@]5(C)[C@@H]4C3)CC2)C1=O	3440 nM	10.8	320 nM	
CC1=C(O)C(=O)C=C2C1=CC=C1[C@@]2(C)CC[C@@]2(C)[C@@H]3C[C@](C)(C(=O)O)CC[C@]3(C)CC[C@]12C [CELASTROL]	4400 nM	4	1100 nM	Activity [5]: 4.6%; Activity [6]: 6.97%; Activity [7]: 1.12%; Activity [8]: Tde; Activity [9]: Dde; viability at 0.5 µM [10]: 87.3%
CC1=C(O)C(=O)C=C2C1=CC=C1[C@@]2(C)CC[C@@]2(C)[C@@H]3C[C@](C)(C(=O)N4CCN(C(=O)CN5C(=O)S/C(=C\c6ccc7c(c6)OCO7)C5=O)CC4)CC[C@]3(C)CC[C@]12C	4000 nM	9.43	350 nM	
COc1ccc(/C=C2\SC(=O)N(CC(=O)N3CCN(C(=O)[C@]4(C)CC[C@]5(C)CC[C@]6(C)C7=CC=C8C(=CC(=O)C(O)=C8C)[C@]7(C)CC[C@@]6(C)[C@@H]5C4)CC3)C2=O)cc1	2040 nM	6.38	320 nM	
CC1=C(O)C(=O)C=C2C1=CC=C1[C@@]2(C)CC[C@@]2(C)[C@@H]3C[C@](C)(C(=O)N4CCN(C(=O)CN5C(=O)S/C(=C\c6ccccc6)C5=O)CC4)CC[C@]3(C)CC[C@]12C	2510 nM	6.28	400 nM	
CC1=C(O)C(=O)C=C2C1=CC=C1[C@@]2(C)CC[C@@]2(C)[C@@H]3C[C@](C)(C(=O)N4CCN(C(=O)CN5C(=O)CSC5=O)CC4)CC[C@]3(C)CC[C@]12C	5700 nM	3.68	1550 nM	
CC1=C(O)C(=O)C=C2C1=CC=C1[C@@]2(C)CC[C@@]2(C)[C@@H]3C[C@](C)(C(=O)N4CCN(C(=O)CN5C(=O)S/C(=C\C6CCCCC6)C5=O)CC4)CC[C@]3(C)CC[C@]12C	3610 nM	6.56	550 nM	
CC1=C(O)C(=O)C=C2C1=CC=C1[C@@]2(C)CC[C@@]2(C)[C@@H]3C[C@](C)(C(=O)N4CCN(C(=O)CN5C(=O)S/C(=C\c6ccc(Br)cc6)C5=O)CC4)CC[C@]3(C)CC[C@]12C	3710 nM	7.27	510 nM	
CC1=C(O)C(=O)C=C2C1=CC=C1[C@@]2(C)CC[C@@]2(C)[C@@H]3C[C@](C)(C(=O)N4CCN(C(=O)CN5C(=O)S/C(=C\C6CCCC6)C5=O)CC4)CC[C@]3(C)CC[C@]12C	3210 nM	18.9	170 nM	
CC1=C(O)C(=O)C=C2C1=CC=C1[C@@]2(C)CC[C@@]2(C)[C@@H]3C[C@](C)(C(=O)N4CCN(C(=O)CN5C(=O)S/C(=C\c6cccc(F)c6)C5=O)CC4)CC[C@]3(C)CC[C@]12C	3180 nM	7.95	400 nM	
CC1=C(O)C(=O)C=C2C1=CC=C1[C@@]2(C)CC[C@@]2(C)[C@@H]3C[C@](C)(C(=O)N4CCN(C(=O)CN5C(=O)S/C(=C\c6cccc(Br)c6)C5=O)CC4)CC[C@]3(C)CC[C@]12C	4020 nM	3.79	1060 nM	
CC1=C(O)C(=O)C=C2C1=CC=C1[C@@]2(C)CC[C@@]2(C)[C@@H]3C[C@](C)(C(=O)N4CCN(C(=O)CN5C(=O)S/C(=C\c6ccc(F)cc6)C5=O)CC4)CC[C@]3(C)CC[C@]12C	2750 nM	7.43	370 nM	
CC1=C(O)C(=O)C=C2C1=CC=C1[C@@]2(C)CC[C@@]2(C)[C@@H]3C[C@](C)(C(=O)N4CCN(C(=O)CN5C(=O)S/C(=C\c6ccco6)C5=O)CC4)CC[C@]3(C)CC[C@]12C	1050 nM	6.18	170 nM	
CC1=C(O)C(=O)C=C2C1=CC=C1[C@@]2(C)CC[C@@]2(C)[C@@H]3C[C@](C)(C(=O)N4CCN(C(=O)CN5C(=O)S/C(=C\c6ccc(Cl)cc6)C5=O)CC4)CC[C@]3(C)CC[C@]12C	3080 nM	7.33	420 nM	
CC1=C(O)C(=O)C=C2C1=CC=C1[C@@]2(C)CC[C@@]2(C)[C@@H]3C[C@](C)(C(=O)N4CCN(C(=O)CN5C(=O)S/C(=C\c6ccc(C)cc6)C5=O)CC4)CC[C@]3(C)CC[C@]12C	2500 nM	4.91	510 nM	
CC1=C(O)C(=O)C=C2C1=CC=C1[C@@]2(C)CC[C@@]2(C)[C@@H]3C[C@](C)(C(=O)N4CCN(C(=O)CN5C(=O)S/C(=C\c6cccc(C)c6)C5=O)CC4)CC[C@]3(C)CC[C@]12C	3190 nM	6.01	530 nM	
CC1=C(O)C(=O)C=C2C1=CC=C1[C@@]2(C)CC[C@@]2(C)[C@@H]3C[C@](C)(C(=O)N4CCN(C(=O)CN5C(=O)S/C(=C\c6cccc(Cl)c6)C5=O)CC4)CC[C@]3(C)CC[C@]12C	3160 nM	6.58	480 nM	
